Results on five molecules are retold here after ChEMBL document CHEMBL1201862, “PubChem BioAssay data set” (2004).

Test systems include TK-10; K562; RXF 393; MOLT-4; NCI-H23; HCT-15; HT-29; CAKI-1; CCRF-CEM; A498; UO-31; 786-0; KM12; SF-539; M14; HOP-92; SN12C; LOX IMVI.
What all share (test): inhibition of tumour cell growth, NCI panel, 48 h

Molecules are shown by their SMILES.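 Results reflect a 48-hour exposure of cells in 96-well plates to compound at five concentrations. GI50 = concentration required for 50% inhibition of growth.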 Activity calls are given as the source filed them. Rule as the data show it: active = GI50 up to about 1.1 µM and inactive = higher.

Consider `C[C@]12CC[C@H](O)CC1=CC[C@@H]1C2CC[C@]2(C)Nc3c(cnn3-c3ccccc3)CC12` (some centres undefined), for which the GI50 is 9.48 µM (inactive) in the test on TK-10; 2.61 µM (inactive) in the test with K562; 0.441 µM (active) with RXF 393; 1.5 µM (inactive) in the test on MOLT-4; 3.88 µM (inactive) in the test with NCI-H23; 2.23 µM in the test with HCT-15. Besides, the GI50 in the test with HT-29 is 1.89 µM (inactive); in the test on CAKI-1 it was 2.96 µM (inactive); in the test on CCRF-CEM, 3.01 µM (inactive); in the test on A498 it was 3.61 µM (inactive); with UO-31, 5.51 µM (inactive); with 786-0, 1.56 µM (inactive). Besides, the results for the GI50 in the test with KM12, in the test on SF-539 and with M14 were 2.05 µM (inactive), 0.9 µM (active) and 6.34 µM (inactive), respectively.
Consider `CC1=N/C(=C\c2ccc([N+](=O)[O-])cc2)C(=O)O1`, for which the GI50 in the test with TK-10, in the test on K562, with RXF 393, in the test on HOP-92, in the test on MOLT-4 and in the test with NCI-H23 was > 100 µM (inactive) each time. Further, the GI50 in the test with HCT-15 is more than 100 µM; with HT-29, > 100 µM (inactive); in the test with SN12C it was > 100 µM (inactive); in the test with A498 it was > 100 µM (inactive); in the test on UO-31, > 100 µM (inactive); in the test with 786-0, > 100 µM (inactive). Besides, the GI50 in the test on KM12, in the test with SF-539 and in the test on M14 was > 100 µM (inactive) in each case.
As to `N#Cc1c2c(c(N=P(c3ccccc3)(c3ccccc3)c3ccccc3)n3c1nc1ccccc13)CCCC2`, the GI50 in the test on K562 is 4.76 µM (inactive); in the test on RXF 393 it was 46.2 µM (inactive); in the test on MOLT-4, 19.6 µM (inactive); in the test with HCT-15, 20.7 µM; with LOX IMVI it was 16.7 µM (inactive); with HT-29, 14.7 µM (inactive). For the same molecule, the GI50 in the test with CAKI-1 was 30 µM (inactive); in the test on CCRF-CEM, 16.7 µM (inactive); in the test with SN12C it was 13.1 µM (inactive); in the test with A498, 20.2 µM (inactive); with UO-31 it was 12.4 µM (inactive); with 786-0, 44 µM (inactive). The GI50 in the test with KM12 is 17.4 µM (inactive); with SF-539, 45.1 µM (inactive); in the test on M14, 30.8 µM (inactive).
Turning to `CC(C)(C)CC(C)(C)c1cc2c(O)c(c1)Cc1cc(C(C)(C)CC(C)(C)C)cc(c1O)Cc1cc(C(C)(C)CC(C)(C)C)cc(c1O)Cc1cc(C(C)(C)CC(C)(C)C)cc(c1O)Cc1cc(C(C)(C)CC(C)(C)C)cc(c1O)Cc1cc(C(C)(C)CC(C)(C)C)cc(c1O)C2`, the GI50 in the test on TK-10, in the test on K562, with RXF 393, with HOP-92, in the test on MOLT-4 and in the test on NCI-H23 was > 100 µM (inactive) in each case. In addition, the GI50 in the test with HCT-15 was more than 100 µM; in the test with HT-29, > 100 µM (inactive); in the test on CCRF-CEM, > 100 µM (inactive); in the test with SN12C it was > 100 µM (inactive); in the test on UO-31, > 100 µM (inactive); in the test with 786-0 it was > 100 µM (inactive). In addition, the GI50 in the test on KM12, in the test with SF-539 and in the test on M14 was > 100 µM (inactive) each time.
`On1c(-c2ccccc2)c(-c2c(-c3ccccc3)n(O)c3ccccc23)c2ccccc21`: the GI50 in the test on TK-10 was 38 µM (inactive); in the test with K562, 36.6 µM (inactive); in the test with RXF 393, 20.9 µM (inactive); in the test on MOLT-4 it was 37.7 µM (inactive); in the test with NCI-H23, 27.3 µM (inactive); in the test with HCT-15, 41 µM. In addition, the GI50 in the test with LOX IMVI is 26.2 µM (inactive); in the test on HT-29, 45.7 µM (inactive); in the test on CCRF-CEM, 34.3 µM (inactive); with SN12C, 46.3 µM (inactive); in the test with UO-31, 15.5 µM (inactive); in the test on 786-0, 14.9 µM (inactive). Further, the GI50 is 30.8 µM (inactive) with KM12 and 24.8 µM (inactive) with SF-539.
